Data published in patent publication EP0330444A2, “Novel thiorhodamines and a novel method of preparation” (EASTMAN KODAK COMPANY (a New Jersey corporation), priority 1988, dated 1989).

What was measured:
[1] = test system: A549 Human Lung Carcinoma; test: In vitro IC50, adhering monolayer culture, neutral red staining, inhibition of cell growth; type: cell-based; conditions: 3 hours drug exposure under red light, then about 7 days growth (four cell-doubling times), neutral red absorbence at 540 nm, read-out: IC₅₀ A549 Human Lung Carcinoma
Description: (§1) The following is the procedure carried out in ascertaining the IC₅₀ concentrations of the thiorhodamines of this invention. (IC₅₀ is the in vitro molar concentration that inhibits 50% of tumor growth. The smaller the concentration, the higher the toxicity.):
(§2) For the IC₅₀ values for the human colon carcinoma and the human lung carcinoma lines, an adhering monolayer culture was used. Two days prior to plating, a number of cells obtained from the American Type Tissue Culture Collection was selected to grow as a stock, the number being that which would ensure the cells had not reached their plateau at the time of the in vitro test. On day 1 of the assay, asynchronous exponentially growing cells from this stock were suspended in a conventional complete medium comprising RPMI 1640 medium supplemented with 5% (v/v) fetal calf serum and 5% (v/v) NU serum obtained from Collaborative Research, and 20mM HEPES buffer, i.e., 4-(2-hydroxyethyl)-1-piperazineethanesulfonic acid. This was plated into a conventional 96-well tissue culture plate using a Cetus/Perkin Elmer automated pipetting device equipped with a dual supply manifold. The cells were then incubated for 48 hours at 37°C in a humidified atmosphere containing 5% CO₂. The cells were then incubated under red light for 3 hours in the presence of varying amounts of the compound of interest at 37°C in a humidified incubator containing 5% CO₂. Compounds were tested over a 6-log range of concentrations. After 3 hours the drug treated cells were then rinsed one time with complete medium as set forth above, and incubated in the complete medium the length of time appropriate to achieve four cell-doubling times (roughly 7 days for these cell lines). The medium was removed and the cells stained for 1-2 hours at 37°C with 0.1% (w/v) neutral red dye obtained from Eastman Kodak Co., dissolved in phosphate buffered saline (PBS) (without calcium or magnesium cations) at a pH of 6.85. The cells were rinsed twice with the same PBS and dried. Excess neutral red dye was eluted from each well with 50% (v/v) ethanol in 1% (v/v) glacial acetic acid. The absorbence of each well was quantitated using a Perkin-Elmer absorbence densitometer set at 540 nm. The % of inhibition of cell growth for a given concentration of compound was calculated using the equation: [formula] where At = absorbence of the cells treated with the candidate drug, Au = absorbence of the control treated with solvent only, and Ab = absorbence of the media and well only (background). […] The plotted data was then fitted to the curve for the function: F(x) = 100 - [100(X/A)^B/(1+(X/A)^B)] where x = the concentration of the test compound, A = the IC₅₀ value (50% inhibition on the plot) and B=the exponent of the fitted function. […]

[2] = test system: CX-1 Human Colon Carcinoma; test: as above; type: cell-based; conditions: 3 hours drug exposure under red light, then about 7 days growth (four cell-doubling times), neutral red absorbence at 540 nm, read-out: IC₅₀ CX-1 Human Colon Carcinoma
Description: as §1, §2

| Structure (SMILES) | IC50 [1] [nM] | IC50 [2] [nM] |
| --- | --- | --- |
| COC(=O)c1ccccc1-c1c2ccc(N(C)C)cc2[s+]c2cc(N(C)C)ccc12 [Prep. 4, 3,6-bis(dimethylamino)-9-(2-methoxycarbonylphenyl)thioxanthylium chloride] | 810 | 810 |
| COC(=O)c1ccccc1-c1c2ccc(=N)cc-2oc2cc(N)ccc12 [Rhodamine 123] | > 12500 | > 12500 |
